# Earlier results in patent publication US9827309B2, “Treating cancer with a combination of a PD-1 antagonist and dinaciclib” (Merck Sharp & Dohme Corp., priority 2013, dated 2017).
# Settings: clinical trials; cited from earlier work
structure (smiles),measurement,value
"CCc1cnn2c(NCc3ccc[n+]([O-])c3)cc(N3CCCC[C@H]3CCO)nc12 [Dinaciclib, 1-[3-ethyl-7-[[(1-oxido-3-pyridinyl)methyl]amino]pyrazolo[1,5-a]pyrimidin-5-yl]-2(S)-piperidineethanol]",most common dose-limiting toxicity,neutropenia
